# Experimental data from patent US8445501B2, “Substituted 7-carboxamido-pyrrolo[3,2-d]pyrimidines” (Takeda GmbH, priority 2008, dated 2013).
# Target: T1, human PDE5 (Homo sapiens, UniProt O76074)
# T1 construct: from tissue; host or cells: platelets from fresh blood of human donors (lysate, 10,000 g supernatant)
# Experiment: Inhibition of the type 5 phosphodiesterase (PDE5) activity, modified SPA test with platelet lysate
# Format: biochemical
# Details: PDE5 from human platelet lysate, 0.5 μM cGMP
# Method in brief: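 Human platelet lysate (10,000 g supernatant) as PDE5 source in SPA with 0.5 μM cGMP plus [3H]cGMP tracer, pH 7.4, 5 mM Mg2+, 1 μM motapizone and 10 nM PDE2 inhibitor; 10–20% conversion. 5 min preincubation, 15 min at 37 °C, stopped with SPA beads/IBMX. IC50 by non-linear regression.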
row,SMILES,IC50 [nM]
1,"COCCOc1cc(OC)ccc1-c1ncnc2c(C(=O)N[C@H]3CC[C@H](NC(=O)CO)CC3)c[nH]c12 [Example 255, trans-4-[4-Methoxy-2-(2-methoxy-ethoxy)-phenyl]-5H-pyrrolo[3,2-d]pyrimidine-7-carboxylic acid [4-(2-hydroxy-acetylamino)-cyclohexyl]-amide]",13.5
2,"COc1ccc(-c2ncnc3c(C(=O)N[C@H]4CC[C@@H](NC(=O)C5(O)CC5)CC4)c[nH]c23)c(OCC2CC2)c1 [Example 204, cis-4-(2-Cyclopropylmethoxy-4-methoxy-phenyl)-5H-pyrrolo[3,2-d]pyrimidine-7-carboxylic acid {-[(1-hydroxy-cyclopropanecarbonyl)-amino]-cyclohexyl}-amide]",0.257
3,"COCCOc1ccc2c(c1-c1ncnc3c(C(=O)N[C@H]4CC[C@@H](NC(=O)C5CC5)CC4)c[nH]c13)OCO2 [Example 165, cis-4-[5-(2-Methoxy-ethoxy)-benzo[1,3]dioxol-4-yl]-5H-pyrrolo[3,2-d]pyrimidine-7-carboxylic acid [4-(cyclopropanecarbonyl-amino)-cyclohexyl]-amide]",5.89
4,"O=C(N[C@H]1CC[C@H](C(=O)NC2CC2)CC1)c1c[nH]c2c(-c3cc(F)ccc3OCC3CC3)ncnc12 [Example 273, trans-4-(2-Cyclopropylmethoxy-5-fluoro-phenyl)-5H-pyrrolo[3,2-d]pyrimidine-7-carboxylic acid (4-cyclopropylcarbamoyl-cyclohexyl)-amide]",2.19
5,"CCCCOc1ccc2c(c1-c1ncnc3c(C(=O)N[C@@H]4CCN(C(=O)[C@H](C)O)C4)c[nH]c13)OCO2 [Example 254, 4-(5-Butoxy-benzo[1,3]dioxol-4-yl)-5H-pyrrolo[3,2-d]pyrimidine-7-carboxylic acid [(R)-1-((S)-2-hydroxy-propionyl)-pyrrolidin-3-yl]amide]",0.589
6,"COCCOc1cc(OC)ccc1-c1ncnc2c(C(=O)N[C@H]3CC[C@H](NC(C)=O)CC3)c[nH]c12 [Example 155, trans-4-[4-Methoxy-2-(2-methoxy-ethoxy)-phenyl]-5H-pyrrolo[3,2-d]pyrimidine-7-carboxylic acid (4-acetylamino-cyclohexyl)-amide]",9.55
7,"CCOC(=O)N[C@H]1CC[C@H](NC(=O)c2c[nH]c3c(-c4cc(C)ccc4OCC4CC4)ncnc23)CC1 [Example 122, trans-(4-{[4-(2-Cyclopropylmethoxy-5-methyl-phenyl)-5H-pyrrolo[3,2-d]pyrimidine-7-carbonyl]-amino}-cyclohexyl)-carbamic acid ethyl ester]",1.38
8,"O=C(NC1CCN(C(=O)C2CC2)CC1)c1c[nH]c2c(-c3c(OCC4CCC4)ccc4c3OCO4)ncnc12 [Example 130, 4-(5-Cyclobutylmethoxy-benzo[1,3]dioxol-4-yl)-5H-pyrrolo[3,2-d]pyrimidine-7-carboxylic acid [1-(1-cyclopropyl-methanoyl)-piperidin-4-yl]-amide]",0.126
9,"COc1ccc(-c2ncnc3c(C(=O)N[C@H]4CC[C@H](NC(=O)CO)CC4)c[nH]c23)c(OCC2CC2)c1 [Example 199, trans-4-(2-Cyclopropylmethoxy-4-methoxy-phenyl)-5H-pyrrolo[3,2-d]pyrimidine-7-carboxylic acid [4-(2-hydroxy-acetylamino)-cyclohexyl]-amide]",0.589
10,"COCCOc1cc(OC)ccc1-c1ncnc2c(C(=O)N[C@H]3CC[C@@H](NC(=O)C4CC4)CC3)c[nH]c12 [Example 153, cis-4-[4-Methoxy-2-(2-methoxy-ethoxy)-phenyl]-5H-pyrrolo[3,2-d]pyrimidine-7-carboxylic acid [4-(cyclopropanecarbonyl-amino)cyclohexyl]-amide]",6.17
11,CCOc1ccc2c(c1-c1ncnc3c(C(=O)N[C@@H]4CCN(C(=O)COC)C4)c[nH]c13)OCO2 [Example 138],6.03
12,"CC(=O)N1CCC[C@H](NC(=O)c2c[nH]c3c(-c4c(OCC5CC5)ccc5c4OCO5)ncnc23)C1 [Example 46, 4-(5-Cyclopropylmethoxy-benzo[1,3]dioxol-4-yl)-5H-pyrrolo[3,2-d]pyrimidine-7-carboxylic acid ((S)-1-acetyl-piperidin-3-yl)-amide]",1.38
13,"CCOC(=O)N[C@H]1CC[C@@H](NC(=O)c2c[nH]c3c(-c4c(OCC5CC5)ccc5c4OCO5)ncnc23)CC1 [Example 10, cis-[4-({1-[4-(5-Cyclopropylmethoxy-benzo[1,3]dioxol-4-yl)-5H-pyrrolo[3,2-d]pyrimidin-7-yl]-methanoyl}-amino)-cyclohexyl]-carbamic acid ethyl ester]",0.2
14,"O=C(N[C@H]1CC[C@H](C(=O)NC2CC2)CC1)c1c[nH]c2c(-c3c(OCC4CC4)ccc4c3OCO4)ncnc12 [Example 270, trans-4-(5-Cyclopropylmethoxy-benzo[1,3]dioxol-4-yl)-5H-pyrrolo[3,2-d]pyrimidine-7-carboxylic acid (4-cyclopropylcarbamoyl-cyclohexyl)-amide]",0.191
15,"COCCOc1ccc2c(c1-c1ncnc3c(C(=O)N[C@H]4CC[C@H](NC(=O)C5CC5)CC4)c[nH]c13)OCO2 [Example 162, trans-4-[5-(2-Methoxy-ethoxy)-benzo[1,3]dioxol-4-yl]-5H-pyrrolo[3,2-d]pyrimidine-7-carboxylic acid (4-(cyclopropanecarbonyl-amino)-cyclohexyl]-amide]",11
16,"COCC(=O)N[C@H]1CC[C@@H](NC(=O)c2c[nH]c3c(-c4ccc(OC)cc4OCC4CC4)ncnc23)CC1 [Example 57, cis-4-(2-Cyclopropylmethoxy-4-methoxy-phenyl)-5H-pyrrolo[3,2-d]pyrimidine-7-carboxylic acid [4-(2-methoxy-acetylamino)-cyclohexyl]-amide]",0.468

# Other lines, results leading:
row,IC50 [nM],SMILES
1,0.309,"CCOC(=O)N1CCC(NC(=O)c2c[nH]c3c(-c4ccc(OC)cc4OCC4CC4)ncnc23)CC1 [Example 62, 4-({1-[4-(2-Cyclopropylmethoxy-4-methoxy-phenyl)-5H-pyrrolo[3,2-d]pyrimidin-7-yl]-methanoyl}-amino)-piperidine-1-carboxylic acid ethyl ester]"
2,1.95,"Cc1ccc(OCC2CC2)c(-c2ncnc3c(C(=O)N[C@H]4CC[C@H](NC(=O)[C@H](C)O)CC4)c[nH]c23)c1 [Example 244, trans-4-(2-Cyclopropylmethoxy-5-methyl-phenyl)-5H-pyrrolo[3,2-d]pyrimidine-7-carboxylic acid [4-((S)-2-hydroxy-propionylamino)-cyclohexyl]-amide]"
3,3.16,"C[C@H](O)C(=O)N1CC[C@H](NC(=O)c2c[nH]c3c(-c4c(OCC5CC5)ccc5c4OCO5)ncnc23)C1 [Example 184, 4-(5-Cyclopropylmethoxy-benzo[1,3]dioxol-4-yl)-5H-pyrrolo[3,2-d]pyrimidine-7-carboxylic acid [(S)-1-((S)-2-hydroxy-propanoyl)-pyrrolidin-3-yl]amide]"
4,0.245,"COc1ccc(-c2ncnc3c(C(=O)NC4CCN(C(=O)C5(O)CC5)CC4)c[nH]c23)c(OCC2CC2)c1 [Example 207, 4-(2-Cyclopropylmethoxy-4-methoxy-phenyl)-5H-pyrrolo[3,2-d]pyrimidine-7-carboxylic acid {1-[1-(1-hydroxy-cyclopropyl)-methanoyl]-piperidin-4-yl}-amide]"
5,0.49,"COCC(=O)N1CCC(NC(=O)c2c[nH]c3c(-c4c(OCC5CCC5)ccc5c4OCO5)ncnc23)CC1 [Example 131, 4-(5-Cyclobutylmethoxy-benzo[1,3]dioxol-4-yl)-5H-pyrrolo[3,2-d]pyrimidine-7-carboxylic acid [1-(2-methoxy-ethanoyl)-piperidin-4-yl]amide]"
6,3.09,"COc1cc(OCC2CC2)c(-c2ncnc3c(C(=O)N[C@H]4CCCN(C(C)=O)C4)c[nH]c23)cc1F [Example 116, 4-(2-Cyclopropylmethoxy-5-fluoro-4-methoxy-phenyl)-5H-pyrrolo[3,2-d]pyrimidine-7-carboxylic acid ((S)-1-acetyl-piperidin-3-yl)-amide]"
7,0.977,"COc1cc(OCC2CC2)c(-c2ncnc3c(C(=O)N[C@@H]4CCN(C(=O)[C@H](C)O)C4)c[nH]c23)cc1F [Example 242, 4-(2-Cyclopropylmethoxy-5-fluoro-4-methoxy-phenyl)-5H-pyrrolo[3,2-d]pyrimidine-7-carboxylic acid [(R)-1-((S)-2-hydroxy-propionyl)pyrrolidin-3-yl]-amide]"
8,0.0692,"O=C(NC1CCN(C(=O)C2CC2)CC1)c1c[nH]c2c(-c3c(OCC4CC4)ccc4c3OCO4)ncnc12 [Example 12, 4-(5-Cyclopropylmethoxy-benzo[1,3]dioxol-4-yl)-5H-pyrrolo[3,2-d]pyrimidine-7-carboxylic acid [1-(1-cyclopropyl-methanoyl)-piperidin-4-yl]amide]"
9,1.2,"COCC(=O)N1CC[C@@H](NC(=O)c2c[nH]c3c(-c4cc(F)c(OC)cc4OCC4CC4)ncnc23)C1 [Example 119, 4-(2-Cyclopropylmethoxy-5-fluoro-4-methoxy-phenyl)-5H-pyrrolo[3,2-d]pyrimidine-7-carboxylic acid [(R)-1-(2-methoxy-acetyl)-pyrrolidin-3-yl]amide]"
10,3.63,"Cc1ccc(OCC2CC2)c(-c2ncnc3c(C(=O)NC4CCN(C(=O)CO)CC4)c[nH]c23)c1 [Example 246, 4-(2-Cyclopropylmethoxy-5-methyl-phenyl)-5H-pyrrolo[3,2-d]pyrimidine-7-carboxylic acid [1-(2-hydroxy-acetyl)piperidin-4-yl]-amide]"
11,2.88,"C[C@H](O)C(=O)N1CCC(NC(=O)c2c[nH]c3c(-c4cc(F)c(OC(F)F)cc4OCC4CC4)ncnc23)CC1 [Example 284, 4-[2-Cyclopropylmethoxy-4-(1,1-difluoro-methoxy)-5-fluoro-phenyl]-5H-pyrrolo[3,2-d]pyrimidine-7-carboxylic acid [1-((S)-2-hydroxy-propionyl)-piperidin-4-yl]-amide]"
